Reference: patent publication US9487513B2, “Substituted pyrazolo[1,5-A]pyridines, their preparation and use as medicaments” (LABORATORIOS DEL DR. ESTEVE S.A., priority 2012, dated 2016)
Counter-ions that a name gives are not always drawn.

These compounds were tested against T1, σ1-receptor (Cavia porcellus, UniProt Q60492) (assay: σ1-receptor binding assay, [3H]-(+)-pentazocine, guinea pig brain membranes). Details: radioligand [3H]-(+)-pentazocine at 5.0 nM; guinea pig brain membrane; 150 min at 37° C.; nonspecific binding with 1 μM haloperidol.
T1 construct: Guinea pig brains were homogenized in 10 vols; (w/v) of Tris-HCl 50 mM 0.32 M sucrose; from tissue; host or cells: guinea pig brain membranes
Protocol: Brain membrane preparation and binding assays for the σ1-receptor were performed as described (DeHaven-Hudkins, D. L., L. C. Fleissner, and F. Y. Ford-Rice, 1992, Characterization of the binding of [^3H](+)pentazocine to σ recognition sites in guinea pig brain, Eur. J. Pharmacol. 227, 371-378) with some modifications. Guinea pig brains were homogenized in 10 vols. (w/v) of Tris-HCl 50 mM 0.32 M sucrose, pH 7.4, with a Kinematica Polytron PT 3000 at 15000 r.p.m. for 30 s. The homogenate was centrifuged at 1000 g for 10 min at 4° C. and the supernatants collected and centrifuged again at 48000 g for 15 min at 4° C. The pellet was resuspended in 10 volumes of Tris-HCl buffer (50 mM, pH 7.4), incubated at 37° C. for 30 min, and centrifuged at 48000 g for 20 min at 4° C. Following this, the pellet was re-suspended in fresh Tris-HCl buffer (50 mM, pH 7.4) and stored on ice until use.
The radioligand used was [^3H]-(+)-pentazocine at 5.0 nM and the final volume was 200 μl. The incubation was initiated with the addition of 100 μl of membrane at a final tissue concentration of approximately 5 mg tissue net weight/mL and the incubation time was 150 m. at 37° C. After incubation, the membranes were collected onto pretreated glass fiber filterplate (MultiScreen-FC, Millipore), with polyethylenimine 0.1%. The filters were washed two times with 200 μl of washing buffer (50 mM Tris Cl, pH=7.4) and then 25 μl of Ecoscint H liquid scintillation cocktail were added. Microplates were allowed to set for several hours and then quantified by liquid scintillation spectrophotometry (1450 Microbeta, Wallac). Nonspecific binding was determined with 1 μM haloperidol.

T1 sequence (Q60492 whole entry): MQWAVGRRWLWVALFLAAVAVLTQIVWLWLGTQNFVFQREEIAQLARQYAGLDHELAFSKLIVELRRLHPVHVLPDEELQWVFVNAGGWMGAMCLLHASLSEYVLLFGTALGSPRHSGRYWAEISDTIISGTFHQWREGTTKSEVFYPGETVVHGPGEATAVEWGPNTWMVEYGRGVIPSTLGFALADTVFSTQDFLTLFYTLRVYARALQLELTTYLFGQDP

SMILES	Ki [µM]
c1ccc2c(c1)COC21CCN(CCOc2cc3ccccn3n2)CC1 [Example 48, 1′-(2-(pyrazolo[1,5-a]pyridin-2-yloxy)ethyl)-3H-spiro[isobenzofuran-1,4′-piperidine] dimaleate]	0.0158
c1ccn2nc(OCCCCN3CCCCCC3)cc2c1 [Example 49, 2-(4-(azepan-1-yl)butoxy)pyrazolo[1,5-a]pyridine maleate]	0.007
c1ccn2nc(OCCCCNC3CCCCC3)cc2c1 [Example 50, N-(4-(pyrazolo[1,5-a]pyridin-2-yloxy)butyl)cyclohexanamine maleate]	0.0097
c1ccn2nc(OCCCCN3CC[C@H]4CCCC[C@@H]4C3)cc2c1 [Example 51, (4aR,8aS)-2-(4-(pyrazolo[1,5-a]pyridin-2-yloxy)butyl)decahydroisoquinoline maleate]	0.0083
c1c(OCCN2CCCCCC2)nn2c1CCCC2 [Example 53, 2-(2-(azepan-1-yl)ethoxy)-4,5,6,7-tetrahydropyrazolo[1,5-a]pyridine maleate]	0.0259
c1c(OCCCCN2CCOCC2)nn2c1CCCC2 [Example 56, 4-(4-(4,5,6,7-tetrahydropyrazolo[1,5-a]pyridin-2-yloxy)butyl)morpholine oxalate]	0.181
c1c(OCCCCN2CCCC2)nn2c1CCCC2 [Example 59, 2-(4-(pyrrolidin-1-yl)butoxy)-4,5,6,7-tetrahydropyrazolo[1,5-a]pyridine oxalate]	0.167
c1c(OCCCCN2CCCCC2)nn2c1CCCC2 [Example 60, 2-(4-(piperidin-1-yl)butoxy)-4,5,6,7-tetrahydropyrazolo[1,5-a]pyridine oxalate]	0.0407
c1c(OCCCCN2CCCCC2)nn2c1CCCC2 [Example 61, 2-(4-(piperidin-1-yl)butoxy)-4,5,6,7-tetrahydropyrazolo[1,5-a]pyridine maleate]	0.0285
c1ccc(C2CCN(CCCCOc3cc4n(n3)CCCC4)CC2)cc1 [Example 63, 2-(4-(4-phenylpiperidin-1-yl)butoxy)-4,5,6,7-tetrahydropyrazolo[1,5-a]pyridine oxalate]	0.0092
CN(CCOc1cc2n(n1)CCCC2)Cc1ccccc1 [Example 64, N-benzyl-N-methyl-2-(4,5,6,7-tetrahydropyrazolo[1,5-a]pyridin-2-yloxy)ethanamine oxalate]	0.0154
CC(C)(C)C1CCN(CCCCOc2cc3n(n2)CCCC3)CC1 [Example 65, 2-(4-(4-tert-butylpiperidin-1-yl)butoxy)-4,5,6,7-tetrahydropyrazolo[1,5-a]pyridine maleate]	0.0083
CC(C)(C)C1CCN(CCOc2cc3n(n2)CCCC3)CC1 [Example 66, 2-(2-(4-tert-butylpiperidin-1-yl)ethoxy)-4,5,6,7-tetrahydropyrazolo[1,5-a]pyridine maleate]	0.0055
CN(CCCCOc1cc2n(n1)CCCC2)C1CCN(Cc2ccccc2)CC1 [Example 67, 1-benzyl-N-methyl-N-(4-(4,5,6,7-tetrahydropyrazolo[1,5-a]pyridin-2-yloxy)butyl)piperidin-4-amine dimaleate]	0.0657
c1c(OCCCCN2CCC3CCCCC3C2)nn2c1CCCC2 (stereo not shown) [Example 68, 2-(4-(4,5,6,7-tetrahydropyrazolo[1,5-a]pyridin-2-yloxy)butyl)decahydroisoquinoline maleate]	0.0073
c1c(OCCCCN2CCN(C3CCCCC3)CC2)nn2c1CCCC2 [Example 69, 2-(4-(4-cyclohexylpiperazin-1-yl)butoxy)-4,5,6,7-tetrahydropyrazolo[1,5-a]pyridine maleate]	0.0416

SMILES	Ki [µM]
c1ccc2c(c1)COC21CCN(CCCCOc2cc3n(n2)CCCC3)CC1 [Example 70, 1′-(4-(4,5,6,7-tetrahydropyrazolo[1,5-a]pyridin-2-yloxy)butyl)-3H-spiro[isobenzofuran-1,4′-piperidine]maleate]	0.0216
c1c(OCCN2CCN(C3CCCCC3)CC2)nn2c1CCCC2 [Example 71, 2-(2-(4-cyclohexylpiperazin-1-yl)ethoxy)-4,5,6,7-tetrahydropyrazolo[1,5-a]pyridine maleate]	0.0393
CN(CCOc1cc2n(n1)CCCC2)C1CCN(Cc2ccccc2)CC1 [Example 72, 1-benzyl-N-methyl-N-(2-(4,5,6,7-tetrahydropyrazolo[1,5-a]pyridin-2-yloxy)ethyl)piperidin-4-amine maleate]	0.035
c1ccc2c(c1)COC21CCN(CCOc2cc3n(n2)CCCC3)CC1 [Example 74, 1′-(2-(4,5,6,7-tetrahydropyrazolo[1,5-a]pyridin-2-yloxy)ethyl)-3H-spiro[isobenzofuran-1,4′-piperidine]maleate]	0.0306
c1c(OCCNC23CC4CC(CC(C4)C2)C3)nn2c1CCCC2 [Example 75, N-adamantyl-2-(4,5,6,7-tetrahydropyrazolo[1,5-a]pyridin-2-yloxy)ethanamine maleate]	0.0317
c1c(OCCCCN2CCCCCC2)nn2c1CCCC2 [Example 78, 2-(4-(azepan-1-yl)butoxy)-4,5,6,7-tetrahydropyrazolo[1,5-a]pyridine maleate]	0.0261
CCCN(CCCCOc1cc2n(n1)CCCC2)CC1CC1 [Example 80, N-(cyclopropylmethyl)-N-propyl-4-(4,5,6,7-tetrahydropyrazolo[1,5-a]pyridin-2-yloxy)butan-1-amine maleate]	0.025
c1c(OCCCCN2CC[C@H]3CCCC[C@@H]3C2)nn2c1CCCC2 [Example 81, (4aR,8aS)-2-(4-(4,5,6,7-tetrahydropyrazolo[1,5-a]pyridin-2-yloxy)butyl)decahydroisoquinoline maleate]	0.0128
CN(CCCCOc1cc2n(n1)CCCC2)Cc1ccccc1 [Example 82, N-benzyl-N-methyl-4-(4,5,6,7-tetrahydropyrazolo[1,5-a]pyridin-2-yloxy)butan-1-amine maleate]	0.0081
c1c(OCCCCNC23CC4CC(CC(C4)C2)C3)nn2c1CCCC2 [Example 83, N-adamantyl-4-(4,5,6,7-tetrahydropyrazolo[1,5-a]pyridin-2-yloxy)butan-1-amine maleate]	0.0348
c1ccc2c(c1)CCN(CCCCOc1cc3n(n1)CCCC3)C2 [Example 84, 2-(4-(4,5,6,7-tetrahydropyrazolo[1,5-a]pyridin-2-yloxy)butyl)-1,2,3,4-tetrahydroisoquinoline maleate]	0.0157
c1c(OCCCCNC2CCCCC2)nn2c1CCCC2 [Example 85, N-(4-(4,5,6,7-tetrahydropyrazolo[1,5-a]pyridin-2-yloxy)butyl)cyclohexanamine maleate]	0.0425
c1c(OCCCCN2CCSCC2)nn2c1CCCC2 [Example 86, 4-(4-(4,5,6,7-tetrahydropyrazolo[1,5-a]pyridin-2-yloxy)butyl)thiomorpholine maleate]	0.0084
c1c(OCCN2CC[C@H]3CCCC[C@@H]3C2)nn2c1CCCC2 [Example 87, (4aR,8aS)-2-(2-(4,5,6,7-tetrahydropyrazolo[1,5-a]pyridin-2-yloxy)ethyl)decahydroisoquinoline maleate]	0.0033
c1c(OCCCCN2CCCOCC2)nn2c1CCCC2 [Example 89, 4-(4-(4,5,6,7-tetrahydropyrazolo[1,5-a]pyridin-2-yloxy)butyl)-1,4-oxazepane maleate]	0.0101
